Data: patent US9809574B2, “Isoindoline or isoquinoline compounds, a process for their preparation and pharmaceutical compositions containing them” (LES LABORATOIRES SERVIER, priority 2013, dated 2017)
Where a name gives a salt, the structure may show the parent alone.

Experiments:
[1] = system: RS4; 11 leukaemia cell line; assay: In vitro cytotoxicity, Microculture Tetrazolium Assay (MTT); type: cell-based; settings: Homo sapiens, 11 cells exposed for 48 hours
Protocol: The cytotoxicity studies were carried out on the RS4; 11 leukaemia cell line and on H146 small Cell Lung Carcinoma cell line. The cells are distributed onto microplates and exposed to the test compounds for 48 hours. The cell viability is then quantified by a colorimetric assay, the Microculture Tetrazolium Assay (Cancer Res., 1987, 47, 939-942).

[2] = molecular target: Bcl-2 protein (histag-Bcl-2, UniProtKB P10415) (Homo sapiens (Human), UniProt P10415); assay: Inhibition of Bcl-2 by the fluorescence polarisation technique; type: binding; settings: for IC50: fluorescence polarisation test, incubation for 2 hours, read-out: IC50 (nM) Bcl-2 FP
Description: For partial inhibitors, the percentage fluorescence polarisation inhibition for a given concentration of the test compound is indicated.

Sequence of Bcl-2 protein (P10415 whole entry): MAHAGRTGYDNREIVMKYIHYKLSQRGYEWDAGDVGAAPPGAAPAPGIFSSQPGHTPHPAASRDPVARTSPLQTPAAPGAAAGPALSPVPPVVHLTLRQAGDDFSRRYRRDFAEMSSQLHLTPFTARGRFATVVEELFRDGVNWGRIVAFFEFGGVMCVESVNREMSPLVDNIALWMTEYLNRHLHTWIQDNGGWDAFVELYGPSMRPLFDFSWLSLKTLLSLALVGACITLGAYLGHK

Row | Structure (SMILES) | IC50 [1] [nM] | IC50 [2] [nM] | inhibition at 3.3 µM ([2]; partial inhibitor, concentration of test compound 3.3 μM, read-out: percentage fluorescence polarisation inhibition (Bcl-2 FP)) [%]
1 | Cc1c(C(=O)N(C)c2ccccc2)cc(-c2cc3c(cc2C(=O)N2Cc4ccccc4C[C@H]2CN2CCOCC2)CN(C(=O)Oc2ccc4cc[nH]c4c2)CC3)n1C [Example 629, 1H-Indol-6-yl 6-{1,5-dimethyl-4-[methyl(phenyl)carbamoyl]-1H-pyrrol-2-yl}-7-[(3S)-3-(morpholin-4-ylmethyl)-1,2,3,4-tetrahydroisoquinoline-2-carbonyl]-1,2,3,4-tetrahydroisoquinoline-2-carboxylate] | 9 | 7.2 | 
2 | Cc1c(C(=O)N(C)c2ccc(O)cc2)cc(-c2cc3c(cc2C(=O)N2Cc4ccccc4C[C@H]2CCCN2CCOCC2)CN(C(=O)OC2CCCCC2)CC3)n1C [Example 809, Cyclohexyl 6-{4-[(4-hydroxyphenyl)(methyl)carbamoyl]-1,5-dimethyl-1H-pyrrol-2-yl}-7-[(3R)-3-[3-(morpholin-4-yl)propyl]-1,2,3,4-tetrahydroisoquinoline-2-carbonyl]-1,2,3,4-tetrahydroisoquinoline-2-carboxylate] | 9.8 | 3.1 | 
3 | Cc1c(C(=O)N(C)c2ccccc2)cc(-c2cc3c(cc2C(=O)N2Cc4ccccc4C[C@H]2C)CNCC3)n1C [Example 119, N,1,2-Trimethyl-5-{7-[(3R)-3-methyl-1,2,3,4-tetrahydroisoquinoline-2-carbonyl]-1,2,3,4-tetrahydroisoquinolin-6-yl}-N-phenyl-1H-pyrrole-3-carboxamide hydrochloride] | > 150 | 622 | 
4 | C[C@@H]1Cc2ccccc2CN1C(=O)c1cc2c(cc1-c1cc(C(=O)N(C)c3ccc(O)cc3)c3n1CCCC3)CN(C(=O)C1CC1)C2 [Example 20, 3-{2-Cyclopropanecarbonyl-6-[(3R)-3-methyl-1,2,3,4-tetrahydroisoquinoline-2-carbonyl]-2,3-dihydro-1H-isoindol-5-yl}-N-(4-hydroxyphenyl)-N-methyl-5,6,7,8-tetrahydroindolizine-1-carboxamide] | > 150 | 20 | 
5 | CN(C)C(=O)c1ccc(OC(=O)N2CCc3cc(-c4cc(C(=O)N(C)c5ccc(O)cc5)c5n4CCCC5)c(C(=O)N4Cc5ccccc5C[C@H]4CN4CCOCC4)cc3C2)cc1 [Example 142, 4-(Dimethylcarbamoyl)phenyl 6-{1-[(4-hydroxyphenyl)(methyl)carbamoyl]-5,6,7,8-tetrahydroindolizin-3-yl}-7-[(3S)-3-(morpholin-4-ylmethyl)-1,2,3,4-tetrahydroisoquinoline-2-carbonyl]-1,2,3,4-tetrahydroisoquinoline-2-carboxylate] | 53 | 5.5 | 
6 | Cc1c(C(=O)N(C)c2ccc(O)cc2)cc(-c2cc3c(cc2C(=O)N2Cc4ccccc4C[C@H]2CN2CCOCC2)CN(C(=O)Oc2cccc(C(=O)O)c2)CC3)n1C [Example 709, 3-(6-{4-[(4-Hydroxyphenyl)(methyl)carbamoyl]-1,5-dimethyl-1H-pyrrol-2-yl}-7-[(3S)-3-(morpholin-4-ylmethyl)-1,2,3,4-tetrahydroisoquinoline-2-carbonyl]-1,2,3,4-tetrahydroisoquinoline-2-carbonyloxy)benzoic acid] | > 150 | 4.8 | 
7 | CN(C(=O)c1cc(-c2cc3c(cc2C(=O)N2Cc4ccccc4C[C@H]2CN2CCOCC2)CN(C(=O)c2ccccc2)C3)n2c1CCCC2)c1ccc(O)cc1 [Example 12, 3-{2-Benzoyl-6-[(3S)-3-(morpholin-4-ylmethyl)-1,2,3,4-tetrahydroisoquinoline-2-carbonyl]-2,3-dihydro-1H-isoindol-5-yl}-N-(4-hydroxyphenyl)-N-methyl-5,6,7,8-tetrahydroindolizine-1-carboxamide hydrochloride] | 759 | 43 | 
8 | CN(C(=O)c1cc(-c2cc3c(cc2C(=O)N2Cc4ccccc4C[C@H]2CN2CCOCC2)CNC3)n2c1CCCC2)c1ccc(O)cc1 [Example 7, N-(4-Hydroxyphenyl)-N-methyl-3-{6-[(3S)-3-(morpholin-4-ylmethyl)-1,2,3,4-tetrahydroisoquinoline-2-carbonyl]-2,3-dihydro-1H-isoindol-5-yl}-5,6,7,8-tetrahydroindolizine-1-carboxamide; dihydrochloride salt] | 1080 |  | 72
9 | C[C@@H]1Cc2ccccc2CN1C(=O)c1cc2c(cc1-c1cc(C(=O)N(C)c3ccc(O)cc3)c3n1CCCC3)CCN(C(=O)NCc1ccccc1)C2 [Example 73, N-Benzyl-6-{1-[(4-hydroxyphenyl)(methyl)carbamoyl]-5,6,7,8-tetrahydroindolizin-3-yl}-7-[(3R)-3-methyl-1,2,3,4-tetrahydroisoquinoline-2-carbonyl]-1,2,3,4-tetrahydroisoquinoline-2-carboxamide] | 36 | 4.3 | 
10 | C[C@@H]1Cc2ccccc2CN1C(=O)c1cc2c(cc1-c1cc(C(=O)N(C)c3ccc(O)cc3)c3n1CCCC3)CCN(C(=O)[C@H](C)c1ccccc1)C2 [Example 91, N-(4-Hydroxyphenyl)-N-methyl-3-{7-[(3R)-3-methyl-1,2,3,4-tetrahydroisoquinoline-2-carbonyl]-2-[(2R)-2-phenylpropanoyl]-1,2,3,4-tetrahydroisoquinolin-6-yl}-5,6,7,8-tetrahydroindolizine-1-carboxamide] | 73 | 7 | 
11 | CC(=O)N(C)c1ccc(OC(=O)N2CCc3cc(-c4cc(C(=O)N(C)c5ccc(O)cc5)c(C)n4C)c(C(=O)N4Cc5ccccc5C[C@H]4CN4CCOCC4)cc3C2)cc1 [Example 803, 4-(N-Methylacetamido)phenyl 6-{4-[(4-hydroxyphenyl)(methyl)carbamoyl]-1,5-dimethyl-1H-pyrrol-2-yl}-7-[(3S)-3-(morpholin-4-ylmethyl)-1,2,3,4-tetrahydroisoquinoline-2-carbonyl]-1,2,3,4-tetrahydroisoquinoline-2-carboxylate] | 37 | 4.6 | 
12 | Cc1c(C(=O)N(C)c2ccc(O)cc2)cc(-c2cc3c(cc2C(=O)N2Cc4ccccc4C[C@H]2C)CN(C(=O)Cc2ccc(C#N)cc2)CC3)n1C [Example 145, 5-{2-[2-(4-Cyanophenyl)acetyl]-7-[(3R)-3-methyl-1,2,3,4-tetrahydroisoquinoline-2-carbonyl]-1,2,3,4-tetrahydroisoquinolin-6-yl}-N-(4-hydroxyphenyl)-N,1,2-trimethyl-1H-pyrrole-3-carboxamide] | 5.5 | 4.2 | 
13 | COc1cccc(/C=C/C(=O)N2CCc3cc(-c4cc(C(=O)N(C)c5ccc(O)cc5)c(C)n4C)c(C(=O)N4Cc5ccccc5C[C@H]4CN4CCOCC4)cc3C2)c1 [Example 136, N-(4-Hydroxyphenyl)-5-{2-[(2E)-3-(3-methoxyphenyl)prop-2-enoyl]-7-[(3S)-3-(morpholin-4-ylmethyl)-1,2,3,4-tetrahydroisoquinoline-2-carbonyl]-1,2,3,4-tetrahydroisoquinolin-6-yl}-N,1,2-trimethyl-1H-pyrrole-3-carboxamide] | 24 | 6.7 | 
14 | Cc1c(C(=O)N(C)c2ccccc2)cc(-c2cc3c(cc2C(=O)N2Cc4ccccc4C[C@H]2CN2CCOCC2)CN(C(=O)Cc2ccc(C#N)cc2)CC3)n1C [Example 151, 5-{2-[2-(4-Cyanophenyl)acetyl]-7-[(3S)-3-(morpholin-4-ylmethyl)-1,2,3,4-tetrahydroisoquinoline-2-carbonyl]-1,2,3,4-tetrahydroisoquinolin-6-yl}-N,1,2-trimethyl-N-phenyl-1H-pyrrole-3-carboxamide] | 19 | 5.3 | 
